Measured values published in US20260078120A1, “SUBSTITUTED PYRIDOPYRIMIDINONES” (MIRATI THERAPEUTICS, INC., priority 2022, published 2026).
Like-named read-outs stand apart in the source and are kept apart here.

Assays:
[1] = tested on: T47D (PI3Kα H1047R mutant) cells; assay: CellTiter-Glo 2.0 luminescent cell viability assay, 72 hours, T47D cells; format: cell-based; conditions: T47D (PI3Kα H1047R mutant) cells, CellTiter-Glo, approximately 72 hours, read-out: T47D (H1047R mutant) Viability IC50
Outline: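 Viability was measured by CellTiter-Glo 2.0 luminescence after approximately 72 h of compound exposure at 37° C. Plating was 1000 cells per well the day before dosing, with ten 1:4 dilutions from a 10 µM top concentration. Values as percent of vehicle were fitted by variable-slope log(inhibitor) regression to give IC50.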

[2] = tested on: SKBR3 (PI3Kα wild type) cells; assay: CellTiter-Glo 2.0 luminescent cell viability assay, 72 hours, SKBR3 cells; format: cell-based; conditions: Homo sapiens, SK-BR-3, 72 h, SKBR3 (PI3Kα wild type) cells, CellTiter-Glo, approximately 72 hours; read-out: SKBR3 (WT) Viability IC50
Outline: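 Viability measured via CTG luminescence following roughly 72 hours of compound exposure at 37° C. Dosing used a 10 um starting concentration diluted 1:4 over 10 points; percent-of-vehicle data fitted with a variable-slope four-parameter model for IC50.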

Compound | IC50 ([1]; Homo sapiens, T47D, 72 h) [µM] | IC50 [2] [µM] | IC50 [1] [µM]
Cc1cc(C(C)Nc2ccc(F)nc2C(=O)O)c2nc(N3Cc4ccccc4C3)c(C)c(=O)n2c1 (centres unmarked) [Example 11-352, 6-fluoro-3-((1-(2-(isoindolin-2-yl)-3,7-dimethyl-4-oxo-4H-pyrido[1,2-a]pyrimidin-9-yl)ethyl)amino)picolinic acid] | 0.0747 | > 10 | –
Cc1cc([C@H](C)Nc2ccc(C(F)(F)F)nc2C(=O)O)c2nc(N3Cc4ccccc4C3)c(C)c(=O)n2c1 [Example 11-353, (S)-3-((1-(2-(isoindolin-2-yl)-3,7-dimethyl-4-oxo-4H-pyrido[1,2-a]pyrimidin-9-yl)ethyl)amino)-6-(trifluoromethyl) picolinic acid] | 6.29 | > 10 | –
Cc1cc([C@@H](C)Nc2ccc(C(F)(F)F)nc2C(=O)O)c2nc(N3Cc4ccccc4C3)c(C)c(=O)n2c1 [Example 11-354, (R)-3-((1-(2-(isoindolin-2-yl)-3,7-dimethyl-4-oxo-4H-pyrido[1,2-a]pyrimidin-9-yl)ethyl)amino)-6-(trifluoromethyl)picolinic acid] | 0.703 | > 10 | –
Cc1cc(C(C)Nc2ccc(C(F)(F)F)nc2C(=O)O)c2nc(N3Cc4ccccc4C3)c(C)c(=O)n2c1 (centres unmarked) [Example 11-355, 3-((1-(2-(isoindolin-2-yl)-3,7-dimethyl-4-oxo-4H-pyrido[1,2-a]pyrimidin-9-yl)ethyl)amino)-6-(trifluoromethyl) picolinic acid] | 0.88 | > 10 | –
Cc1cc(C(C)Nc2cccnc2C(=O)O)c2nc(N3CCCCC3)c(C)c(=O)n2c1 (centres unmarked) [Example 11-356, 3-((1-(3,7-dimethyl-4-oxo-2-(piperidin-1-yl)-4H-pyrido[1,2-a]pyrimidin-9-yl)ethyl)amino)picolinic acid] | 0.532 | 1.2 | –
Cc1cc([C@H](C)Nc2ccc(Cl)nc2C(=O)O)c2nc(N3CCCCC3)c(C)c(=O)n2c1 [Example 11-357, (S)-6-chloro-3-((1-(3,7-dimethyl-4-oxo-2-(piperidin-1-yl)-4H-pyrido[1,2-a]pyrimidin-9-yl)ethyl)amino)picolinic acid] | 0.195 | > 10 | –
Cc1cc([C@@H](C)Nc2ccc(Cl)nc2C(=O)O)c2nc(N3CCCCC3)c(C)c(=O)n2c1 [Example 11-358, (R)-6-chloro-3-((1-(3,7-dimethyl-4-oxo-2-(piperidin-1-yl)-4H-pyrido[1,2-a]pyrimidin-9-yl)ethyl)amino)picolinic acid] | 1.27 | 6.21 | –
Cc1cc(C(C)Nc2ccc(Cl)nc2C(=O)O)c2nc(N3CCCCC3)c(C)c(=O)n2c1 (centres unmarked) [Example 11-359, 6-chloro-3-((1-(3,7-dimethyl-4-oxo-2-(piperidin-1-yl)-4H-pyrido[1,2-a]pyrimidin-9-yl)ethyl)amino)picolinic acid] | 0.362 | 8.11 | –
Cc1cc([C@@H](C)Nc2ccc(Cl)nc2C(=O)O)c2nc(N3Cc4ccccc4C3)c(C)c(=O)n2c1 [Example 11-360, (R)-6-chloro-3-((1-(2-(isoindolin-2-yl)-3,7-dimethyl-4-oxo-4H-pyrido[1,2-a]pyrimidin-9-yl)ethyl)amino)picolinic acid] | – | 8.26 | 1.09
Cc1cc(C(C)Nc2ccc(Cl)nc2C(=O)O)c2nc(N3Cc4ccccc4C3)c(C)c(=O)n2c1 (centres unmarked) [Example 11-361] | 0.277 | 8.79 | –
Cc1cc(C(C)Nc2ccccc2C(=O)O)c2nc(N3Cc4ccccc4C3=O)c(C)c(=O)n2c1 (centres unmarked) [Example 11-362, 2-((1-(3,7-dimethyl-4-oxo-2-(1-oxoisoindolin-2-yl)-4H-pyrido[1,2-a]pyrimidin-9-yl)ethyl)amino)benzoic acid] | 1.37 | > 10 | –
Cc1cc(C(C)Nc2c(F)cccc2C(=O)O)c2nc(N3Cc4ccccc4C3)c(C)c(=O)n2c1 (centres unmarked) [Example 11-363, 3-fluoro-2-((1-(2-(isoindolin-2-yl)-3,7-dimethyl-4-oxo-4H-pyrido[1,2-a]pyrimidin-9-yl)ethyl)amino)benzoic acid] | 2.89 | > 10 | –
Cc1cc(C(C)Nc2cc(F)ccc2C(=O)O)c2nc(N3Cc4ccccc4C3)c(C)c(=O)n2c1 (centres unmarked) [Example 11-364, 4-fluoro-2-((1-(2-(isoindolin-2-yl)-3,7-dimethyl-4-oxo-4H-pyrido[1,2-a]pyrimidin-9-yl)ethyl)amino)benzoic acid] | 5.42 | > 10 | –
Cc1cc([C@H](C)Nc2ccc(F)cc2C(=O)O)c2nc(N3Cc4ccccc4C3)c(C)c(=O)n2c1 [Example 11-365, (S)-5-fluoro-2-((1-(2-(isoindolin-2-yl)-3,7-dimethyl-4-oxo-4H-pyrido[1,2-a]pyrimidin-9-yl)ethyl)amino)benzoic acid] | 3.27 | > 10 | –
Cc1cc([C@@H](C)Nc2ccc(F)cc2C(=O)O)c2nc(N3Cc4ccccc4C3)c(C)c(=O)n2c1 [Example 11-366, (R)-5-fluoro-2-((1-(2-(isoindolin-2-yl)-3,7-dimethyl-4-oxo-4H-pyrido[1,2-a]pyrimidin-9-yl)ethyl)amino)benzoic acid] | 0.144 | 9.62 | –
Cc1cc(C(C)Nc2ccc(F)cc2C(=O)O)c2nc(N3Cc4ccccc4C3)c(C)c(=O)n2c1 (centres unmarked) [Example 11-367, 5-fluoro-2-((1-(2-(isoindolin-2-yl)-3,7-dimethyl-4-oxo-4H-pyrido[1,2-a]pyrimidin-9-yl)ethyl)amino)benzoic acid] | 0.6 | > 10 | –
Cc1cc(C(C)Nc2ccccc2C(=O)O)c2nc(SC3CCOC3)cc(=O)n2c1 (centres unmarked) [Example 11-370, 2-((1-(7-methyl-4-oxo-2-((tetrahydrofuran-3-yl)thio)-4H-pyrido[1,2-a]pyrimidin-9-yl)ethyl)amino)benzoic acid] | > 10 | > 10 | –
Cc1cc(C(C)Nc2ccccc2C(=O)O)c2nc(OC3CCOC3)cc(=O)n2c1 (centres unmarked) [Example 11-371, 2-((1-(7-methyl-4-oxo-2-((tetrahydrofuran-3-yl)oxy)-4H-pyrido[1,2-a]pyrimidin-9-yl)ethyl)amino)benzoic acid] | 9.07 | 3.04 | –
COc1cc(=O)n2cc(C)cc(C(C)Nc3ccccc3C(=O)O)c2n1 (centres unmarked) [Example 11-372, 2-((1-(2-methoxy-7-methyl-4-oxo-4H-pyrido[1,2-a]pyrimidin-9-yl)ethyl)amino)benzoic acid] | > 10 | > 10 | –
Cc1cc(C(C)Nc2ccccc2C(=O)O)c2nc(-c3cn[nH]c3)cc(=O)n2c1 (centres unmarked) [Example 11-373, 2-((1-(7-methyl-4-oxo-2-(1H-pyrazol-4-yl)-4H-pyrido[1,2-a]pyrimidin-9-yl)ethyl)amino)benzoic acid] | 7.64 | > 10 | –
Cc1cc([C@H](C)Nc2ccccc2C(=O)O)c2nc([C@H]3CCN(C)C(=O)C3)cc(=O)n2c1 [Example 11-374, 2-(((S)-1-(7-methyl-2-((S)-1-methyl-2-oxopiperidin-4-yl)-4-oxo-4H-pyrido[1,2-a]pyrimidin-9-yl)ethyl)amino)benzoic acid] | > 10 | > 10 | –
Cc1cc([C@H](C)Nc2ccccc2C(=O)O)c2nc([C@@H]3CCN(C)C(=O)C3)cc(=O)n2c1 [Example 11-375, 2-(((S)-1-(7-methyl-2-((R)-1-methyl-2-oxopiperidin-4-yl)-4-oxo-4H-pyrido[1,2-a]pyrimidin-9-yl)ethyl)amino)benzoic acid] | > 10 | > 10 | –
Cc1cc([C@@H](C)Nc2ccccc2C(=O)O)c2nc([C@H]3CCN(C)C(=O)C3)cc(=O)n2c1 [Example 11-376, 2-(((R)-1-(7-methyl-2-((S)-1-methyl-2-oxopiperidin-4-yl)-4-oxo-4H-pyrido[1,2-a]pyrimidin-9-yl)ethyl)amino)benzoic acid] | 6 | > 10 | –
Cc1cc(C(C)Nc2ccccc2C(=O)O)c2nc(C3CCN(C)C(=O)C3)cc(=O)n2c1 (centres unmarked) [Example 11-377, 2-((1-(7-methyl-2-(1-methyl-2-oxopiperidin-4-yl)-4-oxo-4H-pyrido[1,2-a]pyrimidin-9-yl)ethyl)amino)benzoic acid] | 3.63 | > 10 | –
Cc1cc(C(C)Nc2ccccc2C(=O)O)c2nc(C3=CCNCC3)cc(=O)n2c1 (centres unmarked) [Example 11-378, 2-((1-(7-methyl-4-oxo-2-(1,2,3,6-tetrahydropyridin-4-yl)-4H-pyrido[1,2-a]pyrimidin-9-yl)ethyl)amino)benzoic acid] | > 10 | > 10 | –
CC(=O)N1CC=C(c2cc(=O)n3cc(C)cc([C@@H](C)Nc4ccccc4C(=O)O)c3n2)CC1 [Example 11-379, (R)-2-((1-(2-(1-acetyl-1,2,3,6-tetrahydropyridin-4-yl)-7-methyl-4-oxo-4H-pyrido[1,2-a]pyrimidin-9-yl)ethyl)amino)benzoic acid] | 3.91 | > 10 | –
Cc1cc(C(C)Nc2ccccc2C(=O)O)c2nc(C3CCNCC3)cc(=O)n2c1 (centres unmarked) [Example 11-380, 2-((1-(7-methyl-4-oxo-2-(piperidin-4-yl)-4H-pyrido[1,2-a]pyrimidin-9-yl)ethyl)amino)benzoic acid] | > 10 | > 10 | –
CC(=O)N1CCC(c2cc(=O)n3cc(C)cc(C(C)Nc4ccccc4C(=O)O)c3n2)CC1 (centres unmarked) [Example 11-381, 2-((1-(2-(1-acetylpiperidin-4-yl)-7-methyl-4-oxo-4H-pyrido[1,2-a]pyrimidin-9-yl)ethyl)amino)benzoic acid] | 5.46 | > 10 | –
